From patent publication US10251860B2, “Compounds for bone healing” (University of Pittsburgh—Of the Commonwealth System of …, priority 2015, dated 2019)

Legend:
[1] = system: mice; experiment: Dose escalation experiments in mice; type: in vivo, mouse
Description: In particular, certain embodiments of the oxetane-substituted compounds (e.g., MMS350) are radiation protector/mitigators that are water soluble, and easily administered (e.g., orally administered to a subject). […] Furthermore, MnSOD-PL is relatively ineffective when delivered weeks-months after irradiation, at the time that fibrosis is forming, and appears to be only effective when delivered prior to irradiation. In contrast, MMS350 as shown in the data reported herein, has high effectiveness when delivered months after irradiation and at the time of initiation of radiation fibrosis in the lung.

[2] = system: Brine shrimp; experiment: Brine shrimp toxicity assay; type: in vivo
Experimental: General procedure for brine shrimp toxicity assays. Sample preparation. Stock solutions of 3 were prepared by dissolving 3 (50.0 mg) in 5.0 HPLC grade water (5.0 mL), (solution A) and 3 (2.50 g) in HPLC grade water (10.0 mL) (solution B). Stock solutions of DMSO were prepared by diluting DMSO (45 μL) with HPLC grade water (5.0 mL) (solution C) and DMSO (2.27 mL) with HPLC grade water (10.0 mL) (solution D).
In each case, 5 replicates were performed. Each replicate was performed in a 2 dram vial marked at the 4 and 5 mL volume points. To each vial was added artificial sea water (3 mL) followed by the appropriate volume of stock solution. For set 1 (1.0 mg/mL), solution A (0.500 mL) or solution C (0.500 mL) was added. For set 2 (5.0 mg/mL), solution B (0.100 mL) or solution D (0.100 mL) was added to each vial. For set 3 (20.0 mg/mL), solution B (0.400 mL) or solution D (0.400 mL) was added to each vial. For set 4 (50.0 mg/mL), solution B (1.00 mL) or solution D (1.00 mL) was added to each vial. Controls containing HPLC grade water (0.100 mL, 0.400 mL, and 1.00 mL) were prepared in the same manner, and five replicates of each control were prepared.
Brine shrimp eggs (San Francisco Bay Brand) were hatched in a commercial salt mixture (Instant Ocean). Constant aeration was provided using a pump and airstone, and illumination was maintained using a desk lamp. The shrimp were collected in a separate tank after 48 hours and used within 3-4 hours of collection.
Brine shrimp were added to each vial using a plastic transfer pipet. After the shrimp were transferred, artificial sea-water was added until the volume reached the 5-mL mark. One drop of a yeast suspension prepared by suspending 11 mg yeast in sea-water (20 mL) was added to each vial. The shrimp were counted at t=24 hours. Another drop of freshly prepared yeast solution (6 mg in 10 mL sea water) was added, the vials were maintained under illumination, and shrimp were counted at t=48 hours.

[3] = Compound storage in 25% w/w solutions of 3 and NMP; type: physicochemical; conditions: 25% w/w 3 in NMP, −20° C.
Experimental: Because sulfoxide 3 is a solid, it would have to be mixed with an appropriate water-soluble cosolvent to act as a compound storage additive. NMP was chosen for exploring this potential application due to its thermal stability and low toxicity. […] The compound test set (FIG. 2) was stored in 25% w/w solutions of 3 and NMP for 6 weeks at −20° C.

In the case of `CC1(C[S+]([O-])CC2(C)COC2)COC1` [Compound 3, 3,3′-Sulfinylbis(methylene)bis(3-methyloxetane)], the toxic dose [1] is reported as “a toxic dose has not yet been reached”, the “% Mortality after 24 h” value ([2]; 1 mg/mL) is reported as 0% and the “% Mortality after 48 h” value ([2]; 1 mg/mL) is reported as 0%. For the same molecule, the “% Mortality after 24 h” value ([2]; 5 mg/mL) was 0%, the “% Mortality after 48 h” value ([2]; 5 mg/mL) was 0% and the “% Mortality after 24 h” value ([2]; 20 mg/mL) was 0-10%. For the same molecule, the “% Mortality after 48 h” value ([2]; 20 mg/mL) was 0-10%, the “% Mortality after 24 h” value ([2]; 50 mg/mL) was 85% and the “% Mortality after 48 h” value ([2]; 50 mg/mL) was 100%. For the same molecule, the “mortality after 48 hours” value ([2]; concentrations up to 20 mg/mL) was < 10% and the precipitation on storage [3] was “partly precipitated from the solution”.
